Measurements: ChEMBL document CHEMBL1152020, “Novel 2,5-disubstituted-1H-pyrroles with high affinity for the dopamine D3 receptor” (Bioorg Med Chem Lett, 1996)

What was measured:
D(3) dopamine receptor = D(3) dopamine receptor (Homo sapiens, UniProt P35462); test: Binding affinity towards human Dopamine receptor D3 expressed in CHO cells by [125I]iodosulpiride displacement.; assay type: cell-based
D(2) dopamine receptor = D(2) dopamine receptor (Homo sapiens, UniProt P14416); test: Binding affinity towards human Dopamine receptor D2 expressed in CHO cells by [125I]iodosulpiride displacement.; assay type: cell-based
[1] = target: Dopamine receptors; D2 & D3 (Homo sapiens) (UniProt P14416+P35462); test: Selectivity at D3 compared to D2 receptors.; assay type: protein assay

Sequence of D(3) dopamine receptor (P35462 whole entry): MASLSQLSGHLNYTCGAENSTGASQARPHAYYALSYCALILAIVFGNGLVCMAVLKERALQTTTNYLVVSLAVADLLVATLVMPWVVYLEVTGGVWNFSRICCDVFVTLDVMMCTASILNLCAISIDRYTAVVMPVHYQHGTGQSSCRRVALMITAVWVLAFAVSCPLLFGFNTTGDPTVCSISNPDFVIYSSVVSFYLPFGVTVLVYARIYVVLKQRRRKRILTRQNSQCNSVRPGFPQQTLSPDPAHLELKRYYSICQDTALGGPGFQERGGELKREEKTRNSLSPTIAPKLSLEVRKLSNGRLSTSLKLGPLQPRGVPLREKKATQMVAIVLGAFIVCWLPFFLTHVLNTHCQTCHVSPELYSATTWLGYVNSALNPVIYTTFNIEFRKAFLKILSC
Sequence of D(2) dopamine receptor (P14416 whole entry): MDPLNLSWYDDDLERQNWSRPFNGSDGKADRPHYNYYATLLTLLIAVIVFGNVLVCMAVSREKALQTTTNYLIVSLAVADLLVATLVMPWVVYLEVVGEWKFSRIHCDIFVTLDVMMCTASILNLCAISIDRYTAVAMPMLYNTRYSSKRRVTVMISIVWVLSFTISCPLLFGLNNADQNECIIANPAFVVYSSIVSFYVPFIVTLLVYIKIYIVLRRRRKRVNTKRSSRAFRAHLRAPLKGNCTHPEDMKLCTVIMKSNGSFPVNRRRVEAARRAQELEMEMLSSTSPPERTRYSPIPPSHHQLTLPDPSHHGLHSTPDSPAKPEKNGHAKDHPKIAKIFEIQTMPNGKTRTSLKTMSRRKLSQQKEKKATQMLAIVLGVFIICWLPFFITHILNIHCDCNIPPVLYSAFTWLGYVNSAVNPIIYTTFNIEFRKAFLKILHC

| SMILES | Ki (D(3) dopamine receptor) [nM] | Ki (D(2) dopamine receptor) [nM] | Selectivity [1] |
| --- | --- | --- | --- |
| CCS(=O)(=O)c1ccc(OC)c(-c2ccc(CN3CCOCC3)[nH]2)c1 | 794 | 3160 | 4 |
| CCS(=O)(=O)c1ccc(OC)c(-c2ccc(C(C)N3CCCC3)[nH]2)c1 (stereo not given) | 20 | 398 | 20 |
| CCS(=O)(=O)c1ccc(OC)c(-c2ccc(C(C)N3CCCCC3)[nH]2)c1 (stereo not given) | 10 | 316 | 30 |
| CCS(=O)(=O)c1ccc(OC)c(-c2ccc(CN3CCCCC3)[nH]2)c1 | 25.1 | 158 | 6 |
| CCS(=O)(=O)c1ccc(OC)c(-c2ccc(CN3CCCCCCC3c3ccccc3)[nH]2)c1 (stereo not given) | 20 | 316 | 15 |
| CCS(=O)(=O)c1ccc(OC)c(-c2ccc(CN3CCCC3)[nH]2)c1 | 63.1 | 251 | 4 |
| CCN1CCCC1c1ccc(-c2cc(S(=O)(=O)CC)ccc2OC)[nH]1 (stereo not given) | 5.01 | 25.1 | 5 |
| CCN(CC)Cc1ccc(-c2cc(S(=O)(=O)CC)ccc2OC)[nH]1 | 39.8 | 316 | 8 |
| CCS(=O)(=O)c1ccc(OC)c(-c2ccc(C(C)N3CCCCCC3)[nH]2)c1 (stereo not given) | 20 | 79.4 | 4 |
| CCN1CCCC1CNC(=O)c1cc(S(=O)(=O)CC)ccc1OC (stereo not given) [SULTOPRIDE] | 6.31 | 6.31 | – |
| CCS(=O)(=O)c1ccc(OC)c(-c2ccc(CN3CCCCCC3)[nH]2)c1 | 15.8 | 158 | 10 |
| CCN1CCCCCC1c1ccc(-c2cc(S(=O)(=O)CC)ccc2OC)[nH]1 (stereo not given) | 2 | 7.94 | 4 |

Second part, the compound after the results:

| Ki (D(3) dopamine receptor) [nM] | Ki (D(2) dopamine receptor) [nM] | Selectivity [1] | SMILES |
| --- | --- | --- | --- |
| 2 | 7.94 | 4 | CCN1CCCCC1c1ccc(-c2cc(S(=O)(=O)CC)ccc2OC)[nH]1 (stereo not given) |
| 0.316 | 0.794 | 3 | CCN(Cc1ccccc1)Cc1ccc(-c2cc(S(=O)(=O)CC)ccc2OC)[nH]1 |
| 1 | 15.8 | 15 | CCS(=O)(=O)c1ccc(OC)c(-c2ccc(CN3CCCC3c3ccccc3)[nH]2)c1 (stereo not given) |
| 1.26 | 12.6 | 10 | CCS(=O)(=O)c1ccc(OC)c(-c2ccc(CN3CCCCC3c3ccccc3)[nH]2)c1 (stereo not given) |
| 1.26 | 39.8 | 30 | CCS(=O)(=O)c1ccc(OC)c(-c2ccc(CN3CCCCCC3c3ccccc3)[nH]2)c1 (stereo not given) |
